Read-outs that look alike come from different tables or passages of the source. Where only a bound is given, the exact number is not on record here.

Results on five molecules are retold here after patent US8481532B2, “PDE-10 inhibitors” (EnVivo Pharmaceuticals, Inc., priority 2008, dated 2013).

One experiment has as its target Human PDE10A1 (Homo sapiens, UniProt Q9Y233). As to the kind of experiment: hPDE10A1 Enzyme Inhibition ([3H]-cAMP scintillation assay). It counts as biochemical. As to the method:
• hPDE10A1 Enzyme Activity: […] samples of serially diluted Human PDE10A1 enzyme were incubated with 50 μl of [^3H]-cAMP for 20 minutes (at 37° C.). Reactions were carried out in Greiner 96 deep well 1 ml master-block. The enzyme was diluted in 20 mM Tris HCl pH7.4 and [^3H]-cAMP was diluted in 10 mM MgCl2, 40 mM Tris.HCl pH 7.4. The reaction was terminated by denaturing the PDE enzyme (at 70° C.) after which [^3H]-5′-AMP was converted to [^3H]-adenosine by adding 25 μl snake venom nucleotidase and incubating for 10 minutes (at 37° C.). Adenosine, being neutral, was separated from charged cAMP or AMP by the addition of 200 μl Dowex resin. Samples were shaken for 20 minutes then centrifuged for 3 minutes at 2,500 r.p.m. 50 μl of supernatant was removed and added to 200 μl of MicroScint-20 in white plates (Greiner 96-well Optiplate) and shaken for 30 minutes before reading on Perkin Elmer TopCount Scintillation Counter. • hPDE10A1 Enzyme Inhibition: To check inhibition profile 11 μl of serially diluted inhibitor was added to 50 μl of [^3H]-cAMP and 50 μl of diluted Human PDE10A1 and assay was carried out as in the enzyme activity assay. Data was analysed using Prism software (GraphPad Inc).

A further experiment relates to rats. Particulars: cited from earlier work.
Setting [1] is: Human PDE10A1, [3H]-cAMP substrate, 20 minutes at 37° C., read-out: hPDE10A1 IC50 Band.

Human PDE10A1, sequence (Q9Y233 1-779 isoform Q9Y233-1): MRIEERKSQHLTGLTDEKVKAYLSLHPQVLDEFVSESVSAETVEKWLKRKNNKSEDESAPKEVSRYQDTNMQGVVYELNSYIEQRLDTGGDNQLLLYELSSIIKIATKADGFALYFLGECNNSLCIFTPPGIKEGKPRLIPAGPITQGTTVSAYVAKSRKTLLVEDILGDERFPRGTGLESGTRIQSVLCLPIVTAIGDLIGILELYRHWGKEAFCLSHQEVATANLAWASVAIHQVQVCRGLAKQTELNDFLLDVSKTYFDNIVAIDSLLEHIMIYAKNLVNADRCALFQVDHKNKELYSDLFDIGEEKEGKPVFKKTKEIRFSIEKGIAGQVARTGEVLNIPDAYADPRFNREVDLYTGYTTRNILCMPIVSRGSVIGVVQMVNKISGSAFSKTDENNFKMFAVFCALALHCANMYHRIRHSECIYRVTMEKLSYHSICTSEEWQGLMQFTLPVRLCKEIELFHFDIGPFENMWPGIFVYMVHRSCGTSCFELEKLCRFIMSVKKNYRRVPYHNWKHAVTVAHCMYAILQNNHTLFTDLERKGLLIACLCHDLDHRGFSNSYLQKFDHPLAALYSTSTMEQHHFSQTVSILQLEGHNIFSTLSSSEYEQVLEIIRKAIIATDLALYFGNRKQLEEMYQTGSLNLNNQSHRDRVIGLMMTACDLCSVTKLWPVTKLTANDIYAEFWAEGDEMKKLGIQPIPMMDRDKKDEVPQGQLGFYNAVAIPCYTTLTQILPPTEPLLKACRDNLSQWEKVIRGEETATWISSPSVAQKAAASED

With `CC(C)(C)c1ccc(C2CC2C(=O)N/N=C/c2cccc3cnccc23)cc1` (stereo not shown) [Example 122, (E)-2-(4-tert-butylphenyl)-N′-(isoquinolin-5-ylmethylene) cyclopropanecarbohydrazide], at Human PDE10A1, the IC50 (in general, the point on the concentration scale where inhibition reaches its midpoint) is < 200 nM. As for `O=C(N/N=C/c1cccc2cnccc12)C1CC1c1ccc(-c2ccccc2)cc1` (stereo not shown) [Example 196, (E)-2-(biphenyl-4-yl)-N′-(isoquinolin-5-ylmethylene)cyclopropanecarbohydrazide], on Human PDE10A1 (setting [1]), the IC50 is < 200 nM. With `C/C(=N\NC(=O)C1CC1c1ccc(C(C)(C)C)cc1)c1cccc2cnccc12` (stereo not shown) [Example 197, (E)-2-(4-tert-butylphenyl)-N′-(1-(isoquinolin-5-yl)ethylidene)cyclopropanecarbohydrazide], at Human PDE10A1 (setting [1]), the half-maximal inhibitory concentration (IC50) was < 1000 nM. `CN(/N=C/c1cccc2cnccc12)C(=O)C1CC1c1ccc(C(C)(C)C)cc1` (stereo not shown) [Example 198, (E)-2-(4-tert-butylphenyl)-N′-(isoquinolin-5-ylmethylene)-N-methylcyclopropanecarbohydrazide]: the 50% inhibitory concentration (IC50) at Human PDE10A1 (setting [1]) is < 200 nM. Consider `COc1ccc(Cc2nccc3cc(OC)c(OC)cc23)cc1OC` [papaverine], for which, in the experiment with rats, the apomorphine induced stereotypies entry is “reduces”, the haloperidol induced catalepsy result is on record as “increases” and the “rat brain dopamine levels” value is “reduces”.
